This is an account of results in US20250163104A1, “MACROCYCLIC IMMUNOMODULATORS” (priority 2021, published 2025).

pIC50: −log10 of the molar value. Where a SMILES comes first, the peptide text is derived from it. Bridges are numbered along the chain shown (N, C = ends). [ ]: non-standard residue; d: D form. The star is where a group is joined. Phe(4-COOH) = N[C@@H](Cc1ccc(C(=O)O)cc1)C(=O)O; Bip = N[C@@H](Cc1ccc(-c2ccccc2)cc1)C(=O)O; 3Pal = N[C@@H](Cc1cccnc1)C(=O)O; 4Pal = N[C@@H](Cc1ccncc1)C(=O)O; Cit = NC(=O)NCCC[C@H](N)C(=O)O; Carboxymethyl = O=C(O)C*; Orn = NCCC[C@H](N)C(=O)O; Dab = NCC[C@H](N)C(=O)O; Dap = NC[C@H](N)C(=O)O

The target in the test is T1, human PD-1 / PD-L1-Ig binding on Jurkat cell line over-expressing human PD-1 (Jurkat-PD-1) (Homo sapiens, UniProt Q15116).
T1 construct: expressed in transfected cells; host or cells: Jurkat
T1 sequence (Q15116 25-288): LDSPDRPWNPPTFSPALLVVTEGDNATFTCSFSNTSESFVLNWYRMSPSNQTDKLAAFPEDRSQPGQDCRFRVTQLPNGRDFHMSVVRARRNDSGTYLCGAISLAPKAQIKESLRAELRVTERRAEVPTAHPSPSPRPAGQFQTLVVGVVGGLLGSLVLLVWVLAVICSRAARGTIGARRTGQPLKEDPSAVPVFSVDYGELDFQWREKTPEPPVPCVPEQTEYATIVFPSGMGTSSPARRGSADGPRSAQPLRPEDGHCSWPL
Description: Jurkat-PD-1 Cell Binding High-Content Screening Assay (CBA). Format: cell-based. The note with it: Jurkat-PD-1 cells, PE-labeled PD-L1-Ig 20 nM final; read-out: Jurkat HPD1_PDL1 IC50. The gist of the method: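 Read-out: high-content imaging of PE-tagged PD-L1-Ig bound to Jurkat cells overexpressing human PD-1, after fixation with 4% paraformaldehyde and Hoechst 33342 nuclear staining. Ligand was used at 20 nM final for 1 hour, after a 2 h compound exposure at 37° C in serum-containing DMEM.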
Regarding `CC(C)C[C@@H]1NC(=O)[C@H](CCN)NC(=O)[C@@H](CC(C)C)NC(=O)[C@H](CC(C)C)NC(=O)[C@H](C(C)C)NC(=O)[C@H](Cc2ccc(-c3ccccc3)cc2)NC(=O)[C@H](C(C)C)NC(=O)[C@H](Cc2c[nH]c3ccccc23)NC(=O)[C@H](CC(=O)O)NC(=O)[C@H](Cc2ccc(O)cc2)NC(=O)[C@H](CC(N)=O)NC(=O)CSC[C@@H](C(=O)N[C@@H](C)C(N)=O)NC(=O)[C@H]([C@@H](C)O)NC(=O)[C@H](C(C)C)NC1=O` [Compound 1037] ({CH2CO}-NYDWV[Bip]VL[dL][Dab]LVTCA-NH2; thioether N-14), the pIC50 – broadly, the IC50 on a negative log10 scale, so that one unit is a factor of ten – is 7.27.

Turning to `CC[C@H](C)[C@@H]1NC(=O)[C@H](Cc2ccc(-c3ccccc3)cc2)NC(=O)[C@H](C(C)C)NC(=O)[C@H](Cc2c[nH]c3ccccc23)NC(=O)[C@H](CC(=O)O)NC(=O)[C@H](Cc2ccc(O)cc2)NC(=O)[C@H](CC(N)=O)NC(=O)CSC[C@@H](C(=O)N[C@@H](C)C(N)=O)NC(=O)[C@H]([C@@H](C)O)NC(=O)[C@H](C(C)C)NC(=O)[C@H](CC(C)C)NC(=O)[C@H](CCN)NC(=O)[C@@H](CC(C)C)NC(=O)[C@H](CCCN)NC1=O` [Compound 1038] ({CH2CO}-NYDWV[Bip]I[Orn][dL][Dab]LVTCA-NH2; thioether N-14), the pIC50 was 8.15.

As for `CC[C@H](C)[C@@H]1NC(=O)[C@H](Cc2ccc(-c3ccccc3)cc2)NC(=O)[C@H](C(C)C)NC(=O)[C@H](Cc2c[nH]c3ccccc23)NC(=O)[C@H](CC(=O)O)NC(=O)[C@H](Cc2ccc(O)cc2)NC(=O)[C@H](CC(N)=O)NC(=O)CSC[C@@H](C(=O)N[C@@H](C)C(N)=O)NC(=O)[C@H]([C@@H](C)O)NC(=O)[C@H](C(C)C)NC(=O)[C@H](CC(C)C)NC(=O)[C@H](CCN)NC(=O)[C@@H](CC(C)C)NC(=O)[C@H](CCCCN)NC1=O` [Compound 1039] ({CH2CO}-NYDWV[Bip]IK[dL][Dab]LVTCA-NH2; thioether N-14), the negative logarithm of the IC50 (pIC50) was 7.92.

`CC(C)C[C@@H]1NC(=O)[C@H](CCN)NC(=O)[C@@H](CC(C)C)NC(=O)[C@H](CCCN)NC(=O)[C@H](CCCNC(N)=O)NC(=O)[C@H](Cc2ccc(-c3ccccc3)cc2)NC(=O)[C@H](C(C)C)NC(=O)[C@H](Cc2c[nH]c3ccccc23)NC(=O)[C@H](CC(=O)O)NC(=O)[C@H](Cc2ccc(OCC(=O)O)cc2)NC(=O)[C@H](CN)NC(=O)CSC[C@@H](C(=O)N[C@@H](C)C(N)=O)NC(=O)[C@H]([C@@H](C)O)NC(=O)[C@H](C(C)C)NC1=O` [Compound 1040] ({CH2CO}-[Dap]Y(Carboxymethyl)DWV[Bip][Cit][Orn][dL][Dab]LVTCA-NH2; thioether N-14): the pIC50 is 7.61.

Regarding `CC(C)C[C@@H]1NC(=O)[C@H](CCN)NC(=O)[C@@H](CC(C)C)NC(=O)[C@H](CCCN)NC(=O)[C@H](CCCNC(N)=O)NC(=O)[C@H](Cc2ccc(-c3ccccc3)cc2)NC(=O)[C@H](C(C)C)NC(=O)[C@H](Cc2c[nH]c3ccccc23)NC(=O)[C@H](CC(=O)O)NC(=O)[C@H](Cc2ccc(O)cc2)NC(=O)[C@H](Cc2cccnc2)NC(=O)CSC[C@@H](C(=O)N[C@@H](C)C(N)=O)NC(=O)[C@H]([C@@H](C)O)NC(=O)[C@H](C(C)C)NC1=O` [Compound 1041] ({CH2CO}-[3Pal]YDWV[Bip][Cit][Orn][dL][Dab]LVTCA-NH2; thioether N-14), the negative-log IC50 (pIC50) was 7.37.

In the case of `CC(C)C[C@@H]1NC(=O)[C@H](CCN)NC(=O)[C@@H](CC(C)C)NC(=O)[C@H](CCCN)NC(=O)[C@H](CCCNC(N)=O)NC(=O)[C@H](Cc2ccc(-c3ccccc3)cc2)NC(=O)[C@H](C(C)C)NC(=O)[C@H](Cc2c[nH]c3ccccc23)NC(=O)[C@H](CC(=O)O)NC(=O)[C@H](Cc2ccc(OCC(=O)O)cc2)NC(=O)[C@H](Cc2ccncc2)NC(=O)CSC[C@@H](C(=O)N[C@@H](C)C(N)=O)NC(=O)[C@H]([C@@H](C)O)NC(=O)[C@H](C(C)C)NC1=O` [Compound 1042] ({CH2CO}-[4Pal]Y(Carboxymethyl)DWV[Bip][Cit][Orn][dL][Dab]LVTCA-NH2; thioether N-14), the negative logarithm of the IC50 (pIC50) is 7.89.

For the compound `CC(C)C[C@@H]1NC(=O)[C@H](CCN)NC(=O)[C@@H](CC(C)C)NC(=O)[C@H](CCCN)NC(=O)[C@H](CCCNC(N)=O)NC(=O)[C@H](Cc2ccc(-c3ccccc3)cc2)NC(=O)[C@H](C(C)C)NC(=O)[C@H](Cc2c[nH]c3ccccc23)NC(=O)[C@H](CC(=O)O)NC(=O)[C@H](Cc2ccc(C(=O)O)cc2)NC(=O)[C@H](CN)NC(=O)CSC[C@@H](C(=O)N[C@@H](C)C(N)=O)NC(=O)[C@H]([C@@H](C)O)NC(=O)[C@H](C(C)C)NC1=O` [Compound 1043] ({CH2CO}-[Dap][Phe(4-COOH)]DWV[Bip][Cit][Orn][dL][Dab]LVTCA-NH2; thioether N-14), the pIC50 is 7.50.

Take `CC(C)C[C@@H]1NC(=O)[C@H](CCN)NC(=O)[C@@H](CC(C)C)NC(=O)[C@H](CCCN)NC(=O)[C@H](CCCNC(N)=O)NC(=O)[C@H](Cc2ccc(-c3ccccc3)cc2)NC(=O)[C@H](C(C)C)NC(=O)[C@H](Cc2c[nH]c3ccccc23)NC(=O)[C@H](CC(=O)O)NC(=O)[C@H](Cc2ccc(O)cc2)NC(=O)[C@H](Cc2ccncc2)NC(=O)CSC[C@@H](C(=O)N[C@@H](C)C(N)=O)NC(=O)[C@H]([C@@H](C)O)NC(=O)[C@H](C(C)C)NC1=O` [Compound 1044] ({CH2CO}-[4Pal]YDWV[Bip][Cit][Orn][dL][Dab]LVTCA-NH2; thioether N-14): the pIC50 is 7.58.

With `CC(C)C[C@@H]1NC(=O)[C@H](CCN)NC(=O)[C@@H](CC(C)C)NC(=O)[C@H](CCCN)NC(=O)[C@H](CCCNC(N)=O)NC(=O)[C@H](Cc2ccc(-c3ccccc3)cc2)NC(=O)[C@H](C(C)C)NC(=O)[C@H](Cc2c[nH]c3ccccc23)NC(=O)[C@H](CC(=O)O)NC(=O)[C@H](Cc2ccc(C(=O)O)cc2)NC(=O)[C@H](Cc2cccnc2)NC(=O)CSC[C@@H](C(=O)N[C@@H](C)C(N)=O)NC(=O)[C@H]([C@@H](C)O)NC(=O)[C@H](C(C)C)NC1=O` [Compound 1045] ({CH2CO}-[3Pal][Phe(4-COOH)]DWV[Bip][Cit][Orn][dL][Dab]LVTCA-NH2; thioether N-14), the pIC50 is 7.55.

Take `CC(C)C[C@@H]1NC(=O)[C@H](CCN)NC(=O)[C@@H](CC(C)C)NC(=O)[C@H](CCCN)NC(=O)[C@H](C(C)C)NC(=O)[C@H](Cc2ccc(-c3ccccc3)cc2)NC(=O)[C@H](C(C)C)NC(=O)[C@H](Cc2c[nH]c3ccccc23)NC(=O)[C@H](CC(=O)O)NC(=O)[C@H](Cc2ccc(C(=O)O)cc2)NC(=O)[C@H](CN)NC(=O)CSC[C@@H](C(=O)N[C@@H](C)C(N)=O)NC(=O)[C@H]([C@@H](C)O)NC(=O)[C@H](C(C)C)NC1=O` [Compound 1046] ({CH2CO}-[Dap][Phe(4-COOH)]DWV[Bip]V[Orn][dL][Dab]LVTCA-NH2; thioether N-14): the negative-log IC50 (pIC50) was 7.85.

In the case of `CC(C)C[C@@H]1NC(=O)[C@H](CCN)NC(=O)[C@@H](CC(C)C)NC(=O)[C@H](CCCN)NC(=O)[C@H](C(C)C)NC(=O)[C@H](Cc2ccc(-c3ccccc3)cc2)NC(=O)[C@H](C(C)C)NC(=O)[C@H](Cc2c[nH]c3ccccc23)NC(=O)[C@H](CC(=O)O)NC(=O)[C@H](Cc2ccc(O)cc2)NC(=O)[C@H](Cc2ccncc2)NC(=O)CSC[C@@H](C(=O)N[C@@H](C)C(N)=O)NC(=O)[C@H]([C@@H](C)O)NC(=O)[C@H](C(C)C)NC1=O` [Compound 1047] ({CH2CO}-[4Pal]YDWV[Bip]V[Orn][dL][Dab]LVTCA-NH2; thioether N-14), the pIC50 is 8.17.
